The values below come from US20260306639A1, “DEGRADER FOR DECOMPOSING CMET PROTEIN, AND PHARMACEUTICAL COMPOSITION COMPRISING SAME” (INNOCURE THERAPEUTICS, INC., priority 2022, published 2026).

Each structure is given as a SMILES string. Bounds are passed on as bounds.

The test deals with c-MET. In words: c-MET protein degradation (Simple Western), MKN-45 cells. It is filed as cell-based, human. The conditions noted are these: MKN-45 gastric cancer cells, c-MET overexpressing; 24 hours. As for the experimental part:
In order to assess the resolution of the compound of the present invention for c-MET expressed in cells, cells were dispensed in a 12-well plate at a concentration of 2×10^5 cells/well, and then gastric cancer cell lines were treated with samples for 24 hours and lung cancer cell lines were treated for 48 hours. Cell lysates were collected using a scraper on ice, centrifuged at 4° C. 15,000 rpm for 30 min to obtain a protein-containing supernatant. Protein expression was then measured using the Simple Western Automated Western Blot System Abby instrument using 3 μg of protein for each sample. SDS and heat-induced denaturation proteins were separated by molecular weight, attached to capillary, reacted with anti-c-MET or anti-GAPDH antibodies, which are primary antibodies, and then reacted with HRP-conjugated secondary antibodies, and analyzed the protein expression signal with compass software. Protein expression was normalized based on the expression value of GAPDH, and protein development in each sample was measured as a percentage (%) based on 100% of samples treated with 0.1% DMSO carriers, and DC50 (concentration of a compound where 50% protein inhibition is achieved) was calculated from the change in protein expression amount due to compound treatment.

Broadly, the DC50 is the concentration at which degradation of the target reaches its halfway point. Low values mean a more potent degrader, high ones a less potent degrader. `Cc1nn(C2CCC(=O)NC2=O)c(=O)c2ccc(N3CCN(C(=O)CN4CCC(COc5cnc(-c6cccc(Cn7nc(-c8cccc(C#N)c8)ccc7=O)c6)nc5)CC4)CC3)cc12` (stereo not drawn) [ICT-0001177, 3-(1-{[3-(5-{[1-(2-{4-[2-(2,6-dioxopiperidin-3-yl)-4-methyl-1-oxo-1,2-dihydropthalazine-6-yl]piperazine-1-yl}-2-oxoethyl)piperidine-4-yl]methoxy}pyrimidine-2-yl)phenyl]methyl}-6-oxo-1,6-dihydropyridazine-3-yl)benzonitrile] came in with a 50% degradation concentration (DC50) below 100 nM. The figure for `Cc1nn(C2CCC(=O)NC2=O)c(=O)c2cc(N3CCN(CC4CCN(C(=O)CN5CCC(COc6cnc(-c7cccc(Cn8nc(-c9cccc(C#N)c9)ccc8=O)c7)nc6)CC5)CC4)CC3)ccc12` (stereo not drawn) [ICT-0001195] is below 100 nM; for `N#Cc1cccc(-c2ccc(=O)n(Cc3cccc(-c4ncc(OCC5CCN(C(=O)CCN6CCN(c7ccc8c(=O)n(C9CCC(=O)NC9=O)ncc8c7)CC6)CC5)cn4)c3)n2)c1` (stereo not drawn) [ICT-0001199, 3-(1-{[3-(5-{[1-(3-{4-[2-(2,6-dioxopiperidin-3-yl)-1-oxo-1,2-dihydropthalazine-6-yl]piperazine-1-yl}propanoyl)piperidine-4-il]methoxy}pyrimidin-2-yl)phenyl]methyl}-6-oxo-1,6-dihydropyridazine-3-yl)benzonitrile] it is below 100 nM; for `N#Cc1cccc(-c2ccc(=O)n(Cc3cccc(-c4ncc(OCC5CCN(C(=O)CCCN6CCN(c7ccc8c(=O)n(C9CCC(=O)NC9=O)ncc8c7)CC6)CC5)cn4)c3)n2)c1` (stereo not drawn) [ICT-0001200, 3-(1-{[3-(5-{[1-(4-{4-[2-(2,6-dioxopiperidine-3-yl)-1-oxo-1,2-dihydropthalazine-6-yl]piperazine-1-day}butanoyl)piperidine-4-il]methoxy}pyrimidine-2-yl)phenyl]methyl}6-oxo-1,6-dihydropyridazine-3-yl)benzonitrile] it is below 100 nM. The figure for `N#Cc1cccc(-c2ccc(=O)n(Cc3cccc(-c4ncc(OCC5CCN(C(=O)CCCCN6CCN(c7ccc8c(=O)n(C9CCC(=O)NC9=O)ncc8c7)CC6)CC5)cn4)c3)n2)c1` (stereo not drawn) [ICT-0001201, 3-(1-{[3-(5-{[1-(5-{4-[2-(2,6-dioxopiperidin-3-yl)-1-oxo-1,2-dihydropetalazine-6-yl]piperazine-1-yl}pentanoyl)piperidine-4-il]methoxy}pyrimidine-2-yl)phenyl]methyl}6-oxo-1,6-dihydropyridazine-3-yl)benzonitrile] is below 100 nM. In the case of `Cc1nn(C2CCC(=O)NC2=O)c(=O)c2cc(F)c(N3CCN(CC4CCN(C(=O)CN5CCC(COc6cnc(-c7cccc(Cn8nc(-c9cccc(C#N)c9)ccc8=O)c7)nc6)CC5)CC4)CC3)cc12` (stereo not drawn) [ICT-0001204], the half-maximal degradation concentration (DC50) is below 100 nM. Next, `N#Cc1cccc(-c2ccc(=O)n(Cc3cccc(-c4ncc(OCC5CCN(CC(=O)NCCCC#Cc6ccc7c(=O)n(C8CCC(=O)NC8=O)ncc7c6)CC5)cn4)c3)n2)c1` (stereo not drawn) [ICT-0001205]: below 100 nM; `N#Cc1cccc(-c2ccc(=O)n(Cc3cccc(-c4ncc(OCC5CCN(CC(=O)NCCCCCc6ccc7c(=O)n(C8CCC(=O)NC8=O)ncc7c6)CC5)cn4)c3)n2)c1` (stereo not drawn) [ICT-0001206]: below 100 nM; `Cc1nn(C2CCC(=O)NC2=O)c(=O)c2ccc(N3CCC(CN4CCN(CC(=O)N5CCC(COc6cnc(-c7cccc(Cn8nc(-c9cccc(C#N)c9)ccc8=O)c7)nc6)CC5)CC4)CC3)cc12` (stereo not drawn) [ICT-0001213]: below 100 nM.

Compound `Cc1nn(C2CCC(=O)NC2=O)c(=O)c2cc(N3CCN(CCCCC(=O)N4CCC(COc5cnc(-c6cccc(Cn7nc(-c8cccc(C#N)c8)ccc7=O)c6)nc5)CC4)CC3)ccc12` (stereo not drawn) [ICT-0001217] gave a half-maximal degradation concentration (DC50) below 100 nM.

The compound `N#Cc1cccc(-c2ccc(=O)n(Cc3cccc(-c4ncc(OCC5CCN(CC(=O)N6CCN(c7ccc8c(=O)n(C9CCC(=O)NC9=O)ncc8c7)CC6)CC5)cn4)c3)n2)c1` (stereo not drawn) [ICT-0001221] registered a DC50 below 100 nM. In turn, `N#Cc1cccc(-c2ccc(=O)n(Cc3cccc(-c4ncc(OCC5CCN(CCC(=O)N6CCN(c7ccc8c(=O)n(C9CCC(=O)NC9=O)ncc8c7)CC6)CC5)cn4)c3)n2)c1` (stereo not drawn) [ICT-0001223] came in with a DC50 below 100 nM. Turning to `Cc1nn(C2CCC(=O)NC2=O)c(=O)c2ccc(N3CCN(C(=O)CCN4CCC(COc5cnc(-c6cccc(Cn7nc(-c8cccc(C#N)c8)ccc7=O)c6)nc5)CC4)CC3)cc12` (stereo not drawn) [ICT-0001224], the 50% degradation concentration (DC50) is below 100 nM. For `Cc1nn(C2CCC(=O)NC2=O)c(=O)c2cc(N3CCN(C(=O)CCN4CCC(COc5cnc(-c6cccc(Cn7nc(-c8cccc(C#N)c8)ccc7=O)c6)nc5)CC4)CC3)ccc12` (stereo not drawn) [ICT-0001225], the DC50 was below 100 nM. For `N#Cc1cccc(-c2ccc(=O)n(Cc3cccc(-c4ncc(OCC5CCN(CCCC(=O)N6CCN(c7ccc8c(=O)n(C9CCC(=O)NC9=O)ncc8c7)CC6)CC5)cn4)c3)n2)c1` (stereo not drawn) [ICT-0001226, 3-(1-(3-(5-((1-(4-(4-(2-(2,6-dioxopiperidine-3-yl)-1-oxo-1,2-dihydropetalazine-6-yl)piperazine-1-il)-4-oxobutyl)piperidine-4-il)methoxy)pyrimidine-2-yl)benzyl)-6-oxo-1,6-dihydropyridazine-3-yl)benzonitrile], the DC50 fell in the range of 100 to 1000 nM. `Cc1nn(C2CCC(=O)NC2=O)c(=O)c2ccc(N3CCN(C(=O)CCCN4CCC(COc5cnc(-c6cccc(Cn7nc(-c8cccc(C#N)c8)ccc7=O)c6)nc5)CC4)CC3)cc12` (stereo not drawn) [ICT-0001227, 3-(1-(3-(5-((1-(4-(4-(2-(2,6-dioxopiperidin-3-yl)-4-methyl-1-oxo-1,2-dihydropetalazine-6-yl)piperazine-1-yl)4-oxobutyl)piperidine-4-yl)methoxy)pyrimidine-2-yl)benzyl)6-oxo-1,6-dihydropyridazine-3-yl)benzonitrile] yielded a 50% degradation concentration (DC50) of 100 to 1000 nM. For `Cc1nn(C2CCC(=O)NC2=O)c(=O)c2cc(N3CCN(C(=O)CCCN4CCC(COc5cnc(-c6cccc(Cn7nc(-c8cccc(C#N)c8)ccc7=O)c6)nc5)CC4)CC3)ccc12` (stereo not drawn) [ICT-0001228], the DC50 was below 100 nM. As for `Cc1nn(C2CCC(=O)NC2=O)c(=O)c2cc(N3CCC(N4CCN(C(=O)CN5CCC(COc6cnc(-c7cccc(Cn8nc(-c9cccc(C#N)c9)ccc8=O)c7)nc6)CC5)CC4)CC3)ccc12` (stereo not drawn) [ICT-0001233], the DC50 is below 100 nM. Next, `Cc1nn(C2CCC(=O)NC2=O)c(=O)c2cc(N3CCC(CN4CCN(C(=O)CN5CCC(COc6cnc(-c7cccc(Cn8nc(-c9cccc(C#N)c9)ccc8=O)c7)nc6)CC5)CC4)CC3)ccc12` (stereo not drawn) [ICT-0001234]: above 1000 nM. The figure for `Cc1nn(C2CCC(=O)NC2=O)c(=O)c2ccc(N3CCN(CC4CN(C(=O)CN5CCC(COc6cnc(-c7cccc(Cn8nc(-c9cccc(C#N)c9)ccc8=O)c7)nc6)CC5)C4)CC3)cc12` (stereo not drawn) [ICT-0001235] is below 100 nM; for `Cc1nn(C2CCC(=O)NC2=O)c(=O)c2ccc(N3CCC(CN4CCN(C(=O)CN5CCC(COc6cnc(-c7cccc(Cn8nc(-c9cccc(C#N)c9)ccc8=O)c7)nc6)CC5)CC4)CC3)cc12` (stereo not drawn) [ICT-0001236] it is below 100 nM; for `Cc1nn(C2CCC(=O)NC2=O)c(=O)c2ccc(N3CCN(C4CCN(C(=O)CN5CCC(COc6cnc(-c7cccc(Cn8nc(-c9cccc(C#N)c9)ccc8=O)c7)nc6)CC5)CC4)CC3)cc12` (stereo not drawn) [ICT-0001237] it is below 100 nM.

Regarding `Cc1nn(C2CCC(=O)NC2=O)c(=O)c2cc(N3CCC(C(=O)NCCCNC(=O)CN4CCC(COc5cnc(-c6cccc(Cn7nc(-c8cccc(C#N)c8)ccc7=O)c6)nc5)CC4)CC3)ccc12` (stereo not drawn) [ICT-0001238], the DC50 is above 1000 nM. `Cc1nn(C2CCC(=O)NC2=O)c(=O)c2cc(N3CCC(CN4CCN(CC(=O)N5CCC(COc6cnc(-c7cccc(Cn8nc(-c9cccc(C#N)c9)ccc8=O)c7)nc6)CC5)CC4)CC3)ccc12` (stereo not drawn) [ICT-0001239]: the half-maximal degradation concentration (DC50) is below 100 nM. Compound `Cc1nn(C2CCC(=O)NC2=O)c(=O)c2ccc(N3CCN(c4ccc(NCC(=O)N5CCC(COc6cnc(-c7cccc(Cn8nc(-c9cccc(C#N)c9)ccc8=O)c7)nc6)CC5)cc4)CC3)cc12` (stereo not drawn) [ICT-0001240, 3-(1-(3-(5-((1-((4-(4-(2-(2,6-dioxopiperidin-3-yl)-4-methyl-1-oxo-1,2-dihydropthalazine-6-yl)piperazine-1-yl)phenyl)glycyl)piperidine-4-il)methoxy)pyrimidine-2-yl)benzyl)6-oxo-1,6-dihydropyridazine-3-yl)benzonitrile] yielded a 50% degradation concentration (DC50) of 100 to 1000 nM.

`Cc1nn(C2CCC(=O)NC2=O)c(=O)c2ccc(N3CCN(C(=O)CCCCN4CCC(COc5cnc(-c6cccc(Cn7nc(-c8cccc(C#N)c8)ccc7=O)c6)nc5)CC4)CC3)cc12` (stereo not drawn) [ICT-0001250] returned a DC50 of 100 to 1000 nM.

For the compound `Cc1nn(C2CCC(=O)NC2=O)c(=O)c2cc(N3CCN(C(=O)CCCCN4CCC(COc5cnc(-c6cccc(Cn7nc(-c8cccc(C#N)c8)ccc7=O)c6)nc5)CC4)CC3)ccc12` (stereo not drawn) [ICT-0001251], the DC50 was below 100 nM. The figure for `N#Cc1cccc(-c2ccc(=O)n(Cc3cccc(-c4ncc(OCC5CCN(CCCCC(=O)N6CCN(c7ccc8c(=O)n(C9CCC(=O)NC9=O)ncc8c7)CC6)CC5)cn4)c3)n2)c1` (stereo not drawn) [ICT-0001252] is below 100 nM; for `Cc1nn(C2CCC(=O)NC2=O)c(=O)c2ccc(N3CCN(CC4CN(CC(=O)N5CCC(COc6cnc(-c7cccc(Cn8nc(-c9cccc(C#N)c9)ccc8=O)c7)nc6)CC5)C4)CC3)cc12` (stereo not drawn) [ICT-0001253] it is below 100 nM. The figure for `Cc1nn(C2CCC(=O)NC2=O)c(=O)c2ccc(N3CCN(C[C@H]4CCN(CC(=O)N5CCC(COc6cnc(-c7cccc(Cn8nc(-c9cccc(C#N)c9)ccc8=O)c7)nc6)CC5)CO4)CC3)cc12` (stereo partly drawn) [ICT-0001254] is 100 to 1000 nM.
